Test results published in the NIST ThermoML archive (doi:10.1016/j.jct.2009.06.014).

Experiments:
[1] = wn = mass fraction of the nth substance listed; settings: 101 kPa, Liquid, Vibrating tube method
[2] = xn = mol fraction of the nth substance listed; settings: 101 kPa, Liquid, Vibrating tube method

CCCC[N+](CCCC)(CCCC)CCCC.[Br-] [tetrabutylammonium bromide] + O
mass density [kg/m3], [1]
Settings	w1 = 0.0697	w1 = 0.0999	w1 = 0.15	w1 = 0.1996	w1 = 0.25	w1 = 0.2998	w1 = 0.3499	w1 = 0.4002	w1 = 0.4498	w1 = 0.5
293.15 K	1003.85	1006.63	1011.35	1017.09	1021.73	–	1030.98	1036.25	1041.41	1044.73
298.15 K	1002.43	1005.08	1009.55	1015.11	1019.26	1027.44	1027.91	1032.9	1037.83	1041.06
303.15 K	1000.8	1003.31	1007.54	1012.76	1016.66	1024.31	1024.77	1029.49	1034.23	1037.36
308.15 K	998.95	1001.34	1005.34	1010.24	1013.92	1021.1	1021.55	1026.04	1030.59	1033.62
313.15 K	996.91	999.19	1002.97	1007.59	1011.06	1017.82	1018.26	1022.53	1026.92	1029.85
318.15 K	994.7	996.86	1000.45	1004.8	1008.08	1014.47	1014.9	1018.98	1023.21	1026.05
323.15 K	992.32	994.38	997.78	1001.88	1005	1011.05	1011.47	1015.38	1019.46	1022.22
328.15 K	989.78	991.74	994.96	998.84	1001.81	1007.56	1007.97	1011.71	1015.67	1018.35
333.15 K	987.09	988.96	992	995.69	998.5	1004	1004.4	1008	1011.83	1014.45

C1CCOC1 [tetrahydrofuran] + O
mass density [kg/m3], [2]
Settings	293.15 K	298.15 K	303.15 K	308.15 K	313.15 K	318.15 K	323.15 K	328.15 K	333.15 K
x2 = 0	889.47	885.04	880.76	876.63	872.62	868.72	864.91	861.19	855.57
x2 = 0.307	909.02	904.73	900.6	896.6	892.72	888.93	885.23	881.59	878.02
x2 = 0.5048	927.43	923.37	919.45	915.67	912.03	908.48	905.02	901.65	898.3
x2 = 0.6429	944.68	940.84	937.15	933.61	930.19	926.87	923.65	920.5	917.43
x2 = 0.8027	968.99	965.85	962.77	959.82	956.98	954.25	951.59	949.01	946.48
x2 = 0.8555	979.39	976.67	974.08	971.62	969.26	966.98	964.79	962.66	960.59
x2 = 0.9025	987.96	986.24	984.38	982.6	980.91	979.36	977.79	976.28	974.8
x2 = 0.9402	992.74	991.5	990.32	989.18	988.11	987.04	986	985.02	983.98
x2 = 0.9719	995.94	995.45	994.98	994.52	994.07	993.63	993.19	992.76	992.33
